Data published in patent US4871723A, “Method for treating psoriasis by externally administering to a patient a pharmaceutical composition containing active-type vitamin D” (priority 1984, dated 1989).
Read-outs that look alike come from different tables or passages of the source.

How the values were obtained:
psoriasis vulgaris = assay: therapeutic effect of ointment on psoriasis vulgaris of a person; assay type: in vivo; design: key to degree of severity: 4: very serious; 3: serious; 2: medium; 1: light; 0: disappeared
Method: (i) A suitable amount of 1α,24(R)-dihydroxycholecalciferol was dissolved in diisopropyl adipate, and the solution was uniformly mixed with white vaseline to form an ointment. The mixing ratio of diisopropyl adipate to white vaseline was always maintained at 1:4 by weight, and the concentration of 1α,24(R)-dihydroxycholecalciferol in the ointment was adjusted to 400 micrograms/30 mg, 40 micrograms/30 mg, and 4 micrograms/30 mg.
(ii) Each of the three ointment thus prepared was applied to the site of psoriasis vulgaris of a person, and their therapeutic effects were evaluated. Specifically, ±he ointment having a 1α,24(R)-(OH)2 -D3 concentration of 400 micrograms/30 mg was applied twice daily each in an amount of 30 mg to psoriasis vulgaris at the lower part of the right femur (diseased part A). The ointment having a 1α,24(R)-(OH)2 -D3 concentration of 40 micrograms/[…] was applied twice a day each in an amount of 30 mg to psoriasis vulgaris at the lower part of the left femur (diseased part B). The ointment having a 1α,24(R)-(OH concentration of 4 micrograms/30 mg was applied twice a day each in an amount of 30 mg to psoriasis vulgaris at the middle part of the right femur (the diseased part C).
The therapeutic effects were evaluated on a scale of 5 grades as follows: […]

[1] = amount of vitamin D3 in femoral muscles of rats 2 hours after ointment application or oral administration; assay type: in vivo, male Wistar-strain rats
Method: (ii) Hair was removed from the femoral parts of five male Wistar-strain rats (body weight 220 to 230 g), and 100 mg of the ointment prepared in (i) was well rubbed into the hair-removed part of each animal. Two hours later, the rats were sacrificed, and the skin at the ointment-administeredsite was carefully removed and the muscles inside were taken out.

psoriasis = details: clinical data, cited from earlier work
[2] = control group, oral 0.5 microgram
[3] = ointment-applied group, 100 mg ointment (5 micrograms/g)

| SMILES | relapse of lesion (psoriasis vulgaris; after more than 30 days from stopping of drug application, diseased parts A to C) | therapeutic effect on psoriasis vulgaris (psoriasis vulgaris; external application, ointment) | improvement of diseased parts (psoriasis vulgaris; five days after beginning of treatment, diseased parts A to C (400, 40, 4 micrograms/30 mg, twice daily), original severity 4) | degree of severity (psoriasis vulgaris; ten days, all cases cured, diseased parts A to C (400, 40, 4 micrograms/30 mg, twice daily), original severity 4) | Amounts in the femoral muscles, 1st time (5 rats) [1, 2] | Amounts in the femoral muscles, 2nd time (5 rats) [1, 2] | Amounts in the femoral muscles, 3rd time (5 rats) [1, 2] | Amounts in the femoral muscles, 1st time (5 rats) [1, 3] | Amounts in the femoral muscles, 2nd time (5 rats) [1, 3] | Amounts in the femoral muscles, 3rd time (5 rats) [1, 3] | effectiveness for the treatment of psoriasis (psoriasis; oral administration) | effectiveness for the treatment of psoriasis (psoriasis; external application) |
| --- | --- | --- | --- | --- | --- | --- | --- | --- | --- | --- | --- | --- |
| C=C1/C(=C\C=C2/CCC[C@]3(C)[C@@H]([C@H](C)CC[C@@H](O)C(C)C)CC[C@@H]23)C[C@@H](O)C[C@@H]1O [1α,24(R)-(OH)2 -D3, 1α,24(R)-dihydroxycholecalciferol] | no relapse of lesion was noted | good therapeutic effect | an improvement was observed in all cases | 0 | – | – | – | – | – | – | – | – |
| C=C1/C(=C\C=C2/CCC[C@]3(C)[C@@H]([C@H](C)CCCC(C)C)CC[C@@H]23)C[C@@H](O)C[C@@H]1O [Example 1α-OH--D3, 1α-hydroxycholecalciferol] | – | – | – | – | 103 | 98 | 126 | 441 | 607 | 588 | effective | – |
| C=C1/C(=C\C=C2/CCC[C@]3(C)[C@@H]([C@H](C)CCCC(C)(C)O)CC[C@@H]23)C[C@@H](O)C[C@@H]1O [1α,25-(OH)2 --D3, 1α,25-dihydroxycholecalciferol] | – | – | – | – | – | – | – | – | – | – | effective | effective |
